Data: ChEMBL document CHEMBL4627310, “Design, synthesis and biological evaluation of 3-nitro-1,8-naphthalimides as potential antitumor agents” (Bioorg Med Chem Lett, 2020)

Key:
[1] = system: SK-OV-3; assay: Antiproliferative activity against human SKOV3 cells assessed as cell growth inhibition measured after 48 hrs by MTT assay; assay type: functional, cell-based; conditions: SK-OV-3, 48 h
[2] = system: HepG2; assay: Antiproliferative activity against human HepG2 cells assessed as cell growth inhibition measured after 48 hrs by MTT assay; assay type: functional, cell-based; conditions: HepG2, 48 h
[3] = system: A549; assay: Antiproliferative activity against human A549 cells assessed as cell growth inhibition measured after 48 hrs by MTT assay; assay type: functional, cell-based; conditions: A549, 48 h
[4] = system: T-24; assay: Antiproliferative activity against human T24 cells assessed as cell growth inhibition measured after 48 hrs by MTT assay; assay type: functional, cell-based; conditions: T-24, 48 h
[5] = system: SMMC-7721; assay: Antiproliferative activity against human SMMC7721 cells assessed as cell growth inhibition measured after 48 hrs by MTT assay; assay type: functional, cell-based; conditions: SMMC-7721, 48 h
[6] = system: L02; assay: Cytotoxicity against human HL7702 cells assessed as cell growth inhibition measured after 48 hrs by MTT assay; assay type: cell-based; conditions: L02, 48 h

IC50 [1] [µM] | IC50 [2] [µM] | IC50 [3] [µM] | IC50 [5] [µM] | Structure (SMILES) | IC50 [4] [µM] | IC50 [6] [µM]
28.2 | 10.3 | 19.8 | 26.6 | CNCCCN1C(=O)c2cccc3cc([N+](=O)[O-])cc(c23)C1=O | 9.03 | 14.3
48.2 | 42.7 | 30 | > 100 | O=C1c2cccc3cc([N+](=O)[O-])cc(c23)C(=O)N1Nc1ccccn1 | 57.6 | 82.4
60.5 | 50.4 | 36.9 | 54.1 | O=C1c2cccc3cc([N+](=O)[O-])cc(c23)C(=O)N1c1nc2ccccc2[nH]1 | 54.9 | > 100
61.1 | 38.7 | 32.1 | > 100 | O=C1c2cccc3cc([N+](=O)[O-])cc(c23)C(=O)N1Nc1ccccc1 | 15.1 | 59.1
